This note sets out measurements from patent publication US20240208940A1, “SMALL-MOLECULE INHIBITORS FOR BETA-CATENIN/BCELL LYMPHOMA 9 PROTEIN-PROTEIN INTERACTION” (H. LEE MOFFITT CANCER CENTER AND RESEARCH INSTITUTE, INC., priority 2021, published 2024).

Structures can show the parent of a compound that is named as a salt.

Broadly, the Ki is a dissociation constant, usually derived from enzyme kinetics or from competition with a known ligand. The IC50 is the concentration at which inhibition is half-maximal.

The target of the assay is β-catenin/BCL9 PPI (Homo sapiens (Human), UniProt P35222). In words: AlphaScreen competitive inhibition assay of β-catenin/BCL9 PPI. It is filed as binding. The following applies: mean ± standard deviation (n = 3); for Ki: derived from IC50, read-out: Ki ± SD. The protocol:
AlphaScreen Assays of β-Catenin and BCL9 Interaction. Experiments were performed in white opaque 384-well plates from PerkinElmer (Waltham, MA), and the samples were read on a Biotek Synergy 2 plate reader (Winooski, VT) with excitation at 680 nm and emission at 570 nm. The standard AlphaScreen protocol was used with a sensitivity setting of 200. All dilutions were made in 1× assay buffer containing 25 mM Hepes (pH 7.4), 100 mM NaCl, 0.01% Triton X-100 and 0.1% BSA to minimize nonspecific interactions. For the competitive inhibition assays of β-catenin/BCL9 PPI, the negative control (equivalent to 0% inhibition) refers to 5.0 nM biotinylated BCL9, 50 nM His6-tagged β-catenin, and 10 μg/mL donor and acceptor beads in a final volume of 25 μL assay buffer, but no tested inhibitor present. The positive control (equivalent to 100% inhibition) refers to 5.0 nM biotinylated BCL9 and 10 μg/mL donor and acceptor beads in a final volume of 25 μL assay buffer.
For the β-catenin/BCL9 assay, 5 nM biotinylated BCL9 and 50 nM His6-tagged β-catenin were incubated in assay buffer for 30 min. Different concentrations of the tested inhibitor were added and incubated in 20 μL assay buffer for another 1 h. All of the assay plates were covered and gently mixed on an orbital shaker. The donor and acceptor beads were then added to the plates to a final concentration of 10 μg/mL in 25 μL assay buffer. The mixture was incubated for 1 h before detection. The IC50 value was determined by nonlinear least-square analysis of GraphPad Prism 8.0. The Ki values were derived from the IC50 values using a method reported by Wang and coworkers.^65 The equation used is Ki=[I]50/([L]50/Kd+[P]0/Kd+1) (Where [I]50 denotes the concentration of the free inhibitor at 50% inhibition, [L]50 is the concentration of the free labeled ligand at 50% inhibition, [P]0 is the concentration of the free protein at 0% inhibition, and Kd is the dissociation constant of the protein-ligand complex). All of the experiments were performed in triplicate and carried out in the presence of 1% DMSO for small-molecule inhibitors. Each compound was assayed at least by three independent experiments. The results were expressed as mean±standard deviation.
(In general: Bead proximity is the source of the signal in Alpha formats.)

β-catenin/BCL9 PPI, sequence (P35222 whole entry): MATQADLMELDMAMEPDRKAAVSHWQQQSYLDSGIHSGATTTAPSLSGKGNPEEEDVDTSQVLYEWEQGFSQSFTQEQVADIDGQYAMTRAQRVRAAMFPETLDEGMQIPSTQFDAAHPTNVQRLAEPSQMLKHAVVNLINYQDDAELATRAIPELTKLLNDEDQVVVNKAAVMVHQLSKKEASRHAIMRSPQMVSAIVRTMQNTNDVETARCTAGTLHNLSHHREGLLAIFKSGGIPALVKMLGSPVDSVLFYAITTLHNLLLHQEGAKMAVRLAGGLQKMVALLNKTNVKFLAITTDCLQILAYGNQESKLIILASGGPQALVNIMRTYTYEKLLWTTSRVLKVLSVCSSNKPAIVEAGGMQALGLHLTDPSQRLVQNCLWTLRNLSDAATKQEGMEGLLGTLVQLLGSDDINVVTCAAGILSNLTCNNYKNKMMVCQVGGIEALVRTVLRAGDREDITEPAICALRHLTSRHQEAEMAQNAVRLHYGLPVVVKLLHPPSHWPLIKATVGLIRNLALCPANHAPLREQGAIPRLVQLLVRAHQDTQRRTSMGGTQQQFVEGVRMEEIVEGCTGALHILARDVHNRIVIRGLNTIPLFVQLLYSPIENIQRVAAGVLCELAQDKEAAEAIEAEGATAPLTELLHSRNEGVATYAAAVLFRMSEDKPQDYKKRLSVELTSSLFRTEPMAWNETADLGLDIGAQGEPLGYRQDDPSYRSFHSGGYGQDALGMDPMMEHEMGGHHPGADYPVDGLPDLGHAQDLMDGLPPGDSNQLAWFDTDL

Regarding `O=C(c1ccc(O[C@H]2CCNC2)c(C2CCCCC2)c1)N1CCC(Oc2cc(F)cc(N3C[C@H]4CNC[C@H]4C3)c2)CC1` [Compound 4, (S)-(3-cyclohexyl-4-(((S)-pyrrolidin-3-yl)oxy)phenyl)(4-(3-fluoro-5-((3aR,6aS)-hexahydropyrrolo[3,4-c]pyrrol-2(1H)-yl)phenoxy)piperidin-1-yl)methanone ditrifluoroacetic acid], the inhibition constant Ki is greater than 84 µM and the IC50 is greater than 100 µM.

`CC(C)(C)C1CCC(c2cc(C(=O)N3CCC(Oc4cc(N5CCNCC5)ccc4F)CC3)ccc2O[C@H]2CCNC2)CC1` (stereo in doubt) [Compound 34, cis- and trans-(S)-(3-(4-(tert-butyl)cyclohexyl)-4-(pyrrolidin-3-yloxy)phenyl)(4-(2-fluoro-5-(piperazin-1-yl)phenoxy)piperidin-1-yl)methanone dihydrochloride]: the Ki is no more than 10 µM and the IC50 is no more than 10 µM.

As to `CC(C)(C)C1CCN(c2cc(C(=O)N3CCC(Oc4cc(F)cc(N5CCNCC5)c4)CC3)ccc2O[C@H]2CCNC2)CC1` [Compound 27, (S)-(3-(4-(tert-butyl)piperidin-1-yl)-4-(pyrrolidin-3-yloxy)phenyl)(4-(3-fluoro-5-(piperazin-1-yl)phenoxy)piperidin-1-yl)methanone dihydrochloride], the inhibition constant Ki is no more than 30 µM and the concentration for half-maximal inhibition (IC50) is no more than 30 µM.

As for `CC(C)(C)c1ccc(-c2cc(C(=O)N3CCC(Oc4cc(F)cc(N5CCNCC5)c4)CC3)ccc2O[C@H]2CCNC2)cc1` [Compound 10, (S)-(4′-(tert-butyl)-6-(pyrrolidin-3-yloxy)-[1,1′-biphenyl]-3-yl)(4-(3-fluoro-5-(piperazin-1-yl)phenoxy)piperidin-1-yl)methanone dihydrochloride], the inhibition constant (Ki) is no more than 20 µM and the IC50 is no more than 20 µM.

As for `O=C(c1ccc(O[C@H]2CCNC2)c(-c2ccccc2)c1)N1CCC(Oc2cc(F)cc(N3CCNCC3)c2)CC1` [Compound 8, (S)-(4-(3-fluoro-5-(piperazin-1-yl)phenoxy)piperidin-1-yl)(6-(pyrrolidin-3-yloxy)-[1,1′-biphenyl]-3-yl)methanone dihydrochloride], the inhibitory constant (Ki) is no more than 50 µM and the IC50 was no more than 50 µM.

For `CC(O)C(=O)N1CCC(c2cc(C(=O)N3CCC(Oc4cc(F)cc(N5CCNCC5)c4)CC3)ccc2O[C@H]2CCNC2)CC1` (stereo partly drawn) [Compound 23, 1-(4-(5-(4-(3-fluoro-5-(piperazin-1-yl)phenoxy)piperidine-1-carbonyl)-2-(((S)-pyrrolidin-3-yl)oxy)phenyl)piperidin-1-yl)-2-hydroxypropan-1-one dihydrochloride], the inhibition constant Ki is no more than 50 µM and the IC50 was no more than 50 µM.

Consider `O=C(c1ccc(O[C@H]2CCNC2)c(C2CCC(C(F)(F)F)CC2)c1)N1CCC(Oc2cc(F)cc(N3CCNCC3)c2)CC1` (stereo in doubt) [Compound 18, cis- and trans-(S)-(4-(3-fluoro-5-(piperazin-1-yl)phenoxy)piperidin-1-yl)(4-(pyrrolidin-3-yloxy)-3-(4-(trifluoromethyl)cyclohexyl)phenyl)methanone dihydrochloride], for which the Ki was no more than 20 µM and the IC50 is no more than 20 µM.

As to `CC(C)(C)C1CCC(c2cc(C(=O)N3CCC(Oc4cc(N5CCNCC5)ccc4C(=O)O)CC3)ccc2O[C@H]2CCNC2)CC1` (stereo in doubt) [Compound 40, cis- and trans-(S)-2-((1-(3-(4-(tert-butyl)cyclohexyl)-4-(pyrrolidin-3-yloxy)benzoyl)piperidin-4-yl)oxy)-4-(piperazin-1-yl)benzoic acid dihydrochloride], the Ki was roughly 84 µM and the IC50 is roughly 100 µM.

As to `O=C(c1ccc(O[C@H]2CCNC2)c(C2CCOCC2)c1)N1CCC(Oc2cc(F)cc(N3CCNCC3)c2)CC1` [Compound 20, (S)-(4-(3-fluoro-5-(piperazin-1-yl)phenoxy)piperidin-1-yl)(4-(pyrrolidin-3-yloxy)-3-(tetrahydro-2H-pyran-4-yl)phenyl)methanone dihydrochloride], the inhibition constant (Ki) was roughly 84 µM and the half-maximal inhibitory concentration (IC50) was roughly 100 µM.
